In patent publication US10910642B1, “Redox flow battery having ligand-metal complex” (Los Alamos National Security, LLC, priority 2017, dated 2021):

Assay: Complex solubility in acetonitrile with 0.1 M tetrabutylammonium hexafluorophosphate
Format: physicochemical
Conditions: room temperature
Text: FIG. 8 is a graph depicting the complex solubility in acetonitrile with 0.1 M tetrabutylammonium hexafluorophosphate.

CCC(CC[N-]C(=O)c1ccccn1)[N-]C(=O)c1ccccn1.[Ni+2] (stereo not shown) [Ni((Etbppn)]
maximum solubility: 15 mM
